According to PubChem BioAssay AID256 (DTP/NCI, 2004):
“And” between values parts separate entries of the source, which are not always exact repeats. Identical values can stand only once. Inconclusive results and toxic doses are left out. Rule for the calls: active = survival T/C of 150% or more; inactive = T/C below 125% in these data.

Test system: CD2F1 mice, L1210 leukemia ip, survival T/C
Assay: NCI In Vivo Anticancer Drug Screen. Data for tumor model L1210 Leukemia (intraperitoneal) in CD2F1 (CDF1) mice
Details: higher = longer survival
Procedure, shortened: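 Implant tumor; dose compound or vehicle; measure endpoint in both groups; report treated divided by control.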

[1] = endpoint: mean survival time, dose: 25.0 mg/kg/injection, schedule: Q01DX009 (ip), vehicle: saline with Tween-80
[2] = endpoint: mean survival time, dose: 50.0 mg/kg/injection, schedule: Q01DX009 (ip), vehicle: saline with Tween-80
[3] = endpoint: mean survival time, dose: 100.0 mg/kg/injection, schedule: Q01DX009 (ip), vehicle: saline with Tween-80
[4] = endpoint: mean survival time, dose: 100.0 mg/kg/injection, schedule: Q04DX003 (ip), vehicle: saline with Tween-80
[5] = endpoint: mean survival time, dose: 200.0 mg/kg/injection, schedule: Q04DX003 (ip), vehicle: saline with Tween-80
[6] = endpoint: mean survival time, dose: 400.0 mg/kg/injection, schedule: Q04DX003 (ip), vehicle: saline with Tween-80
[7] = endpoint: mean survival time, dose: 200.0 mg/kg/injection, schedule: Q01DX009 (ip), vehicle: saline with Tween-80
[8] = endpoint: mean survival time, dose: 400.0 mg/kg/injection, schedule: Q01DX009 (ip), vehicle: saline with Tween-80
[9] = endpoint: mean survival time, dose: 100.0 mg/kg/injection, schedule: Q04DX002 (ip), vehicle: saline with Tween-80
[10] = endpoint: mean survival time, dose: 200.0 mg/kg/injection, schedule: Q04DX002 (ip), vehicle: saline with Tween-80
[11] = endpoint: mean survival time, dose: 400.0 mg/kg/injection, schedule: Q04DX002 (ip), vehicle: saline with Tween-80
[12] = endpoint: mean survival time, dose: 75.0 mg/kg/injection, schedule: Q01DX001 (ip), vehicle: saline
[13] = endpoint: mean survival time, dose: 150.0 mg/kg/injection, schedule: Q01DX001 (ip), vehicle: saline
[14] = endpoint: mean survival time, dose: 100.0 mg/kg/injection, schedule: Q01DX001 (ip), vehicle: saline
[15] = endpoint: mean survival time, dose: 200.0 mg/kg/injection, schedule: Q01DX001 (ip), vehicle: saline
[16] = endpoint: mean survival time, dose: 400.0 mg/kg/injection, schedule: Q01DX001 (ip), vehicle: saline

Measured: T/C

COc1cccc2c1CCC1C2CC=C2CC3(CCC21C)OCCO3 (stereo unspecified)
inactive: endpoint: mean survival time, dose: 100.0 mg/kg/injection, schedule: Q04DX003 (sc), vehicle: steriod suspending solution 97 % of control | endpoint: mean survival time, dose: 200.0 mg/kg/injection, schedule: Q04DX003 (sc), vehicle: steriod suspending solution 92 % of control | endpoint: mean survival time, dose: 400.0 mg/kg/injection, schedule: Q04DX003 (sc), vehicle: steriod suspending solution 94 % of control

O=C1Nc2ccccc2/C1=N/N=P(c1ccccc1)(c1ccccc1)c1ccccc1
inactive: endpoint: median survival time, dose: 50.0 mg/kg/injection, schedule: Q04DX002 (ip), vehicle: saline with Tween-80 100 % of control | endpoint: median survival time, dose: 100.0 mg/kg/injection, schedule: Q04DX002 (ip), vehicle: saline with Tween-80 110 % of control | endpoint: median survival time, dose: 200.0 mg/kg/injection, schedule: Q04DX002 (ip), vehicle: saline with Tween-80 100 % of control | endpoint: median survival time, dose: 400.0 mg/kg/injection, schedule: Q04DX002 (ip), vehicle: saline with Tween-80 100 % of control

O=C(CBr)N1c2ccccc2Sc2ccc(C(F)(F)F)cc21
inactive: endpoint: mean survival time, dose: 1.56 mg/kg/injection, schedule: Q01DX009 (ip), vehicle: other 100 % of control | endpoint: mean survival time, dose: 3.13 mg/kg/injection, schedule: Q01DX009 (ip), vehicle: other 97 % of control | endpoint: mean survival time, dose: 6.25 mg/kg/injection, schedule: Q01DX009 (ip), vehicle: other 102 % of control | endpoint: mean survival time, dose: 12.5 mg/kg/injection, schedule: Q01DX009 (ip), vehicle: other 96 % of control | endpoint: mean survival time, dose: 25.0 mg/kg/injection, schedule: Q01DX009 (ip), vehicle: other 102 % of control

CCCCCCCCC/C=C(/CC(=O)O)C(=O)O
inactive: [1] 92 % of control | [2] 96 % of control | [3] 102 % of control

Cc1ccc(S(=O)(=O)N/N=C/c2ccccc2Cl)cc1
inactive: endpoint: mean survival time, dose: 12.5 mg/kg/injection, schedule: Q01DX009 (ip), vehicle: Klucel (hydroxypropylcellulose) (HPC) 93 % of control | endpoint: mean survival time, dose: 25.0 mg/kg/injection, schedule: Q01DX009 (ip), vehicle: Klucel (hydroxypropylcellulose) (HPC) 91 % of control | endpoint: mean survival time, dose: 50.0 mg/kg/injection, schedule: Q01DX009 (ip), vehicle: Klucel (hydroxypropylcellulose) (HPC) 90 % of control | endpoint: mean survival time, dose: 100.0 mg/kg/injection, schedule: Q01DX009 (ip), vehicle: Klucel (hydroxypropylcellulose) (HPC) 98 % of control

Cc1ccc2nc(-c3ccccc3N)[nH]c2c1
inactive: [4] 87 % of control | [5] 92 % of control | [6] 89 % of control

CCOC(=O)C(C(=O)OCC)C(=O)C(C)C
inactive: [4] 93 % of control | [5] 97 % of control | [6] 95 % of control

O=Cc1ccc(C(=O)O)cc1
inactive: [3] 95 % of control | [7] 98 % of control | [8] 101 % of control

COC(=O)c1ccc(C)c(NC2=NCCO2)c1
inactive: endpoint: mean survival time, dose: 6.25 mg/kg/injection, schedule: Q01DX009 (ip), vehicle: saline with Tween-80 96 % of control | endpoint: mean survival time, dose: 12.5 mg/kg/injection, schedule: Q01DX009 (ip), vehicle: saline with Tween-80 97 % of control | [1] 102 % of control | [2] 105 % of control | endpoint: mean survival time, dose: 100.0 mg/kg/injection, schedule: Q01DX001 (ip), vehicle: saline with Tween-80 97 % of control | endpoint: mean survival time, dose: 200.0 mg/kg/injection, schedule: Q01DX001 (ip), vehicle: saline with Tween-80 97 % of control | endpoint: mean survival time, dose: 400.0 mg/kg/injection, schedule: Q01DX001 (ip), vehicle: saline with Tween-80 93 % of control

O=C(O)CCCCSc1ncnc2nc[nH]c12
inactive: [3] 90 % of control | [7] 95 % of control | [8] 102 % of control

N#CSCCN1C(=O)C2C3CCC(O3)C2C1=O (stereo unspecified)
inactive: endpoint: mean survival time, dose: 25.0 mg/kg/injection, schedule: Q04DX002 (ip), vehicle: saline with Tween-80 103 % of control

[I][Ni][I].c1ccc([PH+](c2ccccc2)c2ccccc2)cc1.c1ccc([PH+](c2ccccc2)c2ccccc2)cc1
inactive: [9] 87 % of control | [10] 91 % of control | [11] 87 % of control

CCCCCCCCCCCCOB(OCCCCCCCCCCCC)OCCCCCCCCCCCC
inactive: [4] 95 % of control | [5] 103 % of control | [6] 94 % of control

CCCC(CCC)NCCO
inactive: [12] 98 % of control | [13] 96 % of control

CC12C(=O)OC(=O)C1(C)C1CCC2O1 (stereo unspecified)
inactive: endpoint: mean survival time, dose: 0.39 mg/kg/injection, schedule: Q01DX009 (ip), vehicle: saline with Tween-80 94 % of control | endpoint: mean survival time, dose: 0.78 mg/kg/injection, schedule: Q01DX009 (ip), vehicle: saline with Tween-80 98 % of control | endpoint: mean survival time, dose: 1.56 mg/kg/injection, schedule: Q01DX009 (ip), vehicle: saline with Tween-80 105 % of control | endpoint: mean survival time, dose: 1.56 mg/kg/injection, schedule: Q04DX002 (ip), vehicle: saline with Tween-80 92 % of control

CC(=O)OC1CCC2(C)C(CCC3C2CCC2(C)C(c4cccc(=O)o4)CCC32)C1 (stereo unspecified)
inactive: [14] 101 % of control | [15] 97 % of control | [16] 95 % of control

Nc1ccccc1-c1nc2ccncc2[nH]1
inactive: [12] 100 % of control | [13] 98 % of control

CCCCCCC(=O)O.[Pb]
inactive: endpoint: mean survival time, dose: 75.0 mg/kg/injection, schedule: Q01DX001 (ip), vehicle: other 107 % of control | endpoint: mean survival time, dose: 150.0 mg/kg/injection, schedule: Q01DX001 (ip), vehicle: other 97 % of control | endpoint: mean survival time, dose: 300.0 mg/kg/injection, schedule: Q01DX001 (ip), vehicle: other 103 % of control

CCN(CC)C(=O)Nc1cc2c3c(c1)CCCN3CCC2
inactive: [4] 98 % of control | [5] 96 % of control | [6] 87 % of control

O=[N+]([O-])O.[Sc]
inactive: endpoint: mean survival time, dose: 6.25 mg/kg/injection, schedule: Q01DX009 (ip), vehicle: saline 93 % of control | endpoint: mean survival time, dose: 12.5 mg/kg/injection, schedule: Q01DX009 (ip), vehicle: saline 90 % of control | endpoint: mean survival time, dose: 25.0 mg/kg/injection, schedule: Q01DX009 (ip), vehicle: saline 88 % of control | [14] 100 % of control | [16] 93 % of control

OCc1ccc(Cl)cc1
inactive: [4] 96 % of control | [5] 97 % of control | [6] 100 % of control

Cc1nc(-c2ccccc2)[nH]c(=O)c1Cc1cc2c(cc1O)OCC2
inactive: [14] 100 % of control | [15] 101 % of control | [16] 100 % of control

[CH3][Sn]([CH3])([Cl])[c]1cc[c]([Sn]([CH3])([CH3])[Cl])cc1
inactive: endpoint: median survival time, dose: 0.12 mg/kg/injection, schedule: Q01DX009 (ip), vehicle: saline 100 % of control | endpoint: median survival time, dose: 0.25 mg/kg/injection, schedule: Q01DX009 (ip), vehicle: saline 101 % of control | endpoint: median survival time, dose: 0.5 mg/kg/injection, schedule: Q01DX009 (ip), vehicle: saline 105 % of control | endpoint: median survival time, dose: 1.0 mg/kg/injection, schedule: Q01DX009 (ip), vehicle: saline 101 % of control and 108 % of control | endpoint: median survival time, dose: 2.0 mg/kg/injection, schedule: Q01DX009 (ip), vehicle: saline 108 % of control and 110 % of control

CN(Cc1cnc(N)c(C#N)n1)c1ccc(C(=O)NC(CCC(=O)OC(C)(C)C)C(=O)OC(C)(C)C)cc1 (stereo unspecified)
inactive: [9] 91 % of control | [10] 91 % of control | [11] 102 % of control
